Data taken from US20140142000A1, “MICROFLUIDIC ARRAY PLATFORM FOR SIMULTANEOUS CELL CULTURE UNDER OXYGEN TENSIONS” (Academia Sinica, priority 2012, published 2014).

Experiments:
in vitro = type: cell-based; details: human
Procedure: To examine the performance of the array on a chip form for cell culture, carcinomic human alveolar basal epithelial cells (A549, ATCC, Manassas, Va., USA) were utilized. A549 cells were cultured in F-12K medium (Gibco 21127, Invitrogen Co., Carlsbad, Calif., USA) with 10% v/v fetal bovine serum (FBS) (Gibco 10082, Invitrogen Carlsbad, Calif., USA) and 1% v/v antibiotic-antimycotic (Gibco 15240, Invitrogen, Carlsbad, Calif., USA). The stocks were maintained under 5% CO2 in T25 cell culture flasks (Nunc 156367, Thermo Scientific Inc., Rochester, N.Y., USA), and passaged by dissociation with 0.25% trypsin-EDTA (Gibco 25200, Invitrogen, Carlsbad, Calif., USA). […]
For oxygen scavenging, pyrogallol (benzene-1,2,3-triol, C6H6O3) (87-66-1, Alfa Aesar, Ward Hill, Mass., USA) and sodium hydroxide (NaOH) (30620, Sigma-Aldrich, St Louis, Mo., USA) were introduced into the microfluidic channels to control oxygen tensions. The oxygen tensions in the cell culture wells were calibrated by measuring the relative fluorescence lifetime of an oxygen sensitive fluorescence dye, tris(2,2′-bypyridyl) ruthenium […] chloride (50525-27-4, Acros Organics, Geel, Belgium), while flowing chemicals in the underneath channels with various concentrations using the experimental setup as shown in FIG. 2(a). […]

A549 cells [1] = test: PrestoBlue normalized cell viability of A549 cells treated with TPZ under various oxygen tensions on the array platform (48 hours); type: cell-based, human
Procedure: In the experiments, 1 M NaOH and pyrogallol solutions with concentrations of 0, 190, and 500 μg ml^−1 at flow rates of 20 μml^−1 were used to set the oxygen tensions inside the cell culture wells as normoxia (˜20%), 7.0%, and 1.4%, respectively, and the drug, TPZ, with concentrations of 0, 10, 25, 50, and 100 mM were applied. The cells were cultured under different conditions, including: 20% oxygen and 0 mM TPZ; 20% oxygen and 50 mM TPZ; and 1.4% oxygen and 50 mM TPZ, for 48 hours. […] Furthermore, the cell viability was checked using a live/dead stain solution containing calcein AM (1 mM) and ethidium homodimer-1 (2 mM) from LIVE/DEAD Viability/Cytotoxicity Kit (L3224, Invitrogen). […] To quantitatively characterize the cell viabilities of A549 cells treated with TPZ under various oxygen tensions, the PrestoBlue cell viability assays were performed in the experiments. […] In order to minimize variations between the experiments, the measured fluorescence intensity from each well was normalized to the average intensity of the cell culture wells, in which the cells were cultured under normoixa without TPZ (i.e. 0 mM TPZ). To compare the differences between the normalized cell viabilities for various oxygen tensions, statistical analysis, unpaired, two-tailed Student's t-tests were performed in this study.

A549 cells [2] = test: Cell morphology and attachment of A549 cells cultured with TPZ on the array platform; type: cell-based, human; details: 48 hours
Procedure: In the experiments, 1 M NaOH and pyrogallol solutions with concentrations of 0, 190, and 500 μg ml^−1 at flow rates of […] were used to set the oxygen tensions inside the cell culture wells as normoxia (˜20%), 7.0%, and 1.4%, respectively, and the drug, TPZ, with concentrations of […] were applied. The cells were cultured under different conditions, including: 20% oxygen and 0 mM TPZ; 20% oxygen and 50 mM TPZ; and 1.4% oxygen and 50 mM TPZ, for 48 hours. […] Furthermore, the cell viability was checked using a live/dead stain solution containing calcein AM (1 mM) and ethidium homodimer-1 (2 mM) from LIVE/DEAD Viability/Cytotoxicity Kit (L3224, Invitrogen). The great viability (>95% by analyzing four fluorescence images taken in different cell culture wells using an image analysis software MetaMorph from Molecular Devices, Sunnyvale, Calif.) of the cells cultured under the control conditions for 48 hours confirmed the great cell compatibility of the multi-layer PDMS microfluidic device according to the invention. […] To quantitatively characterize the cell viabilities of A549 cells treated with TPZ under various oxygen tensions, the PrestoBlue cell viability assays were performed in the experiments. The developed microfluidic array platform can be directed placed into a microplate reader commonly used in biological labs for assay readout. […]

A 549 cells = test: Fluorescence-based cell viability in conventional 96-well plates with oxygen tension-controlled incubator, compared with the device; set-up: species or system human; details: 96-well plate, 48 hours, normoxia and hypoxia
Procedure: A comparison of cell viabilities under various drug treatments in normoxia and hypoxia conditions using the cell culture array platform according to the invention and conventional 96-well plates (167008, Nunclon DELTA Surface, Nunc) with an oxygen tension-controlled cell incubator (Heracell 240i, Thermo Scientific). In the well plate experiments, approximate 5000 A 549 cells were seeded into each well. The cells with 80 μl medium were incubated overnight in the cell incubator to ensure the cell attachment onto the wells before the drug treatments, and 20 μl drug solutions with various TPZ concentrations were than added into the wells. The cells were incubated with drug-contained medium for 48 hours. After the testing, the cell viabilities were estimated using the fluorescence-based cell viability assay, and read by the plate reader.

With `Nc1n[n+]([O-])c2ccccc2[n+]1[O-]` [TPZ, 3-amino-1,2,4-benzotriazine-1,4-dioxide] the cytotoxicity at 12 h (in vitro) was greater than 20%, the “normalized cell viability at 1.4% oxygen tension versus 7.0% oxygen tension” value (A549 cells [1]) was “lower statistically than that for the 7.0% oxygen tension condition” and the “normalized cell viability, normoxia higher than low oxygen tensions (7.0% and 1.4%)” value (A549 cells [1]; TPZ concentrations higher than 25 mM, normalized to normoxia without TPZ) was “more than 20%”. The “cell morphology / attachment” value (A549 cells [2]; 1.4% oxygen and 50 mM TPZ) was “more cells became rounded and detached from the substrate”, the “cell morphology / attachment” value (A549 cells [2]; 20% oxygen and 50 mM TPZ) was “the shapes of the cells became rounded and some cells detached from the substrate” and the “hypoxia-activated cytotoxicity in well plates compared with the device” value (A 549 cells) was “more hypoxia-activated cytotoxicity”.
